# Target: recombinant Mcl-1 (residues 172-327) (Homo sapiens (Human), UniProt Q07820)
# Assay: Bak peptide fluorescence polarization anisotropy competition assay, Mcl-1
# Format: binding
# Settings: Table 2, Ki range; FITC-Bak peptide 10 nM, Mcl-1 14 nM; read-out: Ki for inhibition of Mcl-1
# Sequence of recombinant Mcl-1 (residues 172-327) (Q07820 172-327): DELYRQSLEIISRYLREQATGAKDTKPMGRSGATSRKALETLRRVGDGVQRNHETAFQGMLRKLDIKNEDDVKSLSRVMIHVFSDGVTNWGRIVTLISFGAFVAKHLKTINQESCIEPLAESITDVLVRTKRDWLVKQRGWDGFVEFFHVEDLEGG
row,Ki,SMILES
1,≤ 100 nM,"Cc1cc(OCCCc2c(C(=O)NS(=O)(=O)c3ccccc3)[nH]c3c(-c4cccn4C)cccc23)cc(C)c1Cl [Example 101, 3-(3-(4-chloro-3,5-dimethylphenoxy)propyl)-7-(1-methyl-1H-pyrrol-2-yl)-N-(phenylsulfonyl)-1H-indole-2-carboxamide]"
2,≤ 100 nM,"Cc1cc(OCCCc2c(C(=O)NS(=O)(=O)c3ccccc3)[nH]c3c(-c4c(CO)nn(C)c4C)cccc23)cc(C)c1Cl [Example 127, 3-(3-(4-chloro-3,5-dimethylphenoxy)propyl)-7-(3-(hydroxymethyl)-1,5-dimethyl-1H-pyrazol-4-yl)-N-(phenylsulfonyl)-1H-indole-2-carboxamide]"
3,≤ 100 nM,"Cc1cc(OCCCc2c(C(=O)NS(=O)(=O)c3ccccc3)[nH]c3c(-c4c(C)n[nH]c4C)cccc23)cc(C)c1Cl [Example 305, 3-(3-(4-chloro-3,5-dimethylphenoxy)propyl)-7-(3,5-dimethyl-1H-pyrazol-4-yl)-N-(phenylsulfonyl)-1H-indole-2-carboxamide]"
4,≤ 100 nM,"Cc1cc2nnnn2cc1-c1cccc2c(CCCOc3cc(C)c(Cl)c(C)c3)c(C(=O)NS(=O)(=O)c3ccccc3)[nH]c12 [Example 300, 3-(3-(4-chloro-3,5-dimethylphenoxy)propyl)-7-(7-methyltetrazolo[1,5-a]pyridin-6-yl)-N-(phenylsulfonyl)-1H-indole-2-carboxamide]"
5,≤ 100 nM,"Cc1cc2nccn2cc1-c1cccc2c(CCCOc3cc(C)c(Cl)c(C)c3)c(C(=O)NS(=O)(=O)c3ccccc3)[nH]c12 [Example 299, 3-(3-(4-chloro-3,5-dimethylphenoxy)propyl)-7-(7-methylimidazo[1,2-a]pyridin-6-yl)-N-(phenylsulfonyl)-1H-indole-2-carboxamide]"

# Same assay, conditions: read-out: Ki for inhibition of Mcl-1
row,SMILES,Ki
1,"CS(=O)(=O)NC(=O)c1[nH]c2cc(Cl)ccc2c1CCCOc1ccc(Cl)c(Cl)c1 [Example 105, 6-chloro-3-(3-(3,4-dichlorophenoxy)propyl)-N-(methylsulfonyl)-1H-indole-2-carboxamide]",1000 to 9990 nM
2,"Cc1cc(OCCCc2c(C(=O)NS(=O)(=O)CCNC(=O)c3cnco3)[nH]c3ccccc23)cc(C)c1Cl [Example 188, N-(2-(N-(3-(3-(4-chloro-3,5-dimethylphenoxy)propyl)-1H-indole-2-carbonyl)sulfamoyl)ethyl)oxazole-5-carboxamide]",1000 to 9990 nM
3,"COc1ccc(OCCCc2c(C(=O)NS(C)(=O)=O)[nH]c3cc(Cl)ccc23)cc1 [Example 109, 6-chloro-3-(3-(4-methoxyphenoxy)propyl)-N-(methylsulfonyl)-1H-indole-2-carboxamide]",10000 to 50000 nM
4,"Cc1cc(OCCCc2c(C(=O)NS(=O)(=O)CCNC(=O)c3nccn3Cc3ccccc3)[nH]c3ccccc23)cc(C)c1Cl [Example 173, N-((2-(1-benzyl-1H-imidazole-2-carboxamido)ethyl)sulfonyl)-3-(3-(4-chloro-3,5-dimethylphenoxy)propyl)-1H-indole-2-carboxamide]",501 to 999 nM
5,"O=C(O)c1oc2ccccc2c1CCCc1cccc2ccccc12 [Example 22, 3-(3-(naphthalen-1-yl)propyl)benzofuran-2-carboxylic acid]",10000 to 50000 nM
6,"O=C(NS(=O)(=O)C1CC1)c1sc2ccccc2c1CCCOc1cccc2ccccc12 [Example 67, N-(cyclopropylsulfonyl)-3-(3-(naphthalen-1-yloxy)propyl)benzo[b]thiophene-2-carboxamide]",1000 to 9990 nM
7,"Cc1cc(OCCCc2c(C(=O)NS(=O)(=O)C3CC3)sc3ccccc23)cc(C)c1Cl [Example 69, 3-(3-(4-chloro-3,5-dimethylphenoxy)propyl)-N-(cyclopropylsulfonyl)benzo[b]thiophene-2-carboxamide]",1000 to 9990 nM
8,"Cc1cc(OCCCc2c(C(=O)NS(C)(=O)=O)sc3ccccc23)cc(C)c1Cl [Example 68, 3-(3-(4-chloro-3,5-dimethylphenoxy)propyl)-N-(methylsulfonyl)benzo[b]thiophene-2-carboxamide]",1000 to 9990 nM

# Further lines, results first:
row,Ki,SMILES
1,101 to 299 nM,"Cc1cc(OCCCc2c(C(=O)NS(=O)(=O)CCCNC(=O)c3cccn3Cc3ccccc3)[nH]c3cc(Cl)ccc23)cc(C)c1Cl [Example 258, N-((3-(1-benzyl-1H-pyrrole-2-carboxamido)propyl)sulfonyl)-6-chloro-3-(3-(4-chloro-3,5-dimethylphenoxy)propyl)-1H-indole-2-carboxamide]"
2,501 to 999 nM,"CS(=O)(=O)NC(=O)c1[nH]c2cccc(Br)c2c1CCCOc1cccc2ccccc12 [Example 115, 4-bromo-N-(methylsulfonyl)-3-(3-(naphthalen-1-yloxy)propyl)-1H-indole-2-carboxamide]"
3,501 to 999 nM,"CC(=O)N1CCC(CS(=O)(=O)NC(=O)c2[nH]c3ccccc3c2CCCOc2cc(C)c(Cl)c(C)c2)CC1 [Example 210, N-(((1-acetylpiperidin-4-yl)methyl)sulfonyl)-3-(3-(4-chloro-3,5-dimethylphenoxy)propyl)-1H-indole-2-carboxamide]"
4,101 to 299 nM,"Cc1cc(OCCCc2c(C(=O)NS(=O)(=O)CCNC(=O)c3cccn3Cc3ccccc3)[nH]c3cc(Cl)ccc23)cc(C)c1Cl [Example 241, N-((2-(1-benzyl-1H-pyrrole-2-carboxamido)ethyl)sulfonyl)-6-chloro-3-(3-(4-chloro-3,5-dimethylphenoxy)propyl)-1H-indole-2-carboxamide]"
5,101 to 299 nM,"Cc1cc(OCCCc2c(C(=O)NS(=O)(=O)CCNC(=O)c3cc(C)n(Cc4ccncc4)c3C)[nH]c3ccccc23)cc(C)c1Cl [Example 195, 3-(3-(4-chloro-3,5-dimethylphenoxy)propyl)-N-((2-(2,5-dimethyl-1-(pyridin-4-ylmethyl)-1H-pyrrole-3-carboxamido)ethyl)sulfonyl)-1H-indole-2-carboxamide]"
6,101 to 299 nM,"Cc1ccc(C(=O)NCCS(=O)(=O)NC(=O)c2[nH]c3ccccc3c2CCCOc2cc(C)c(Cl)c(C)c2)o1 [Example 157, 3-(3-(4-chloro-3,5-dimethylphenoxy)propyl)-N-((2-(5-methylfuran-2-carboxamido)ethyl)sulfonyl)-1H-indole-2-carboxamide]"
7,101 to 299 nM,"Cc1cc(OCCCc2c(C(=O)NS(=O)(=O)CCNC(=O)c3ccoc3)[nH]c3ccccc23)cc(C)c1Cl [Example 158, 3-(3-(4-chloro-3,5-dimethylphenoxy)propyl)-N-((2-(furan-3-carboxamido)ethyl)sulfonyl)-1H-indole-2-carboxamide]"
8,301 to 500 nM,"Cc1cc(OCCCc2c(C(=O)NS(C)(=O)=O)[nH]c3cc(Br)ccc23)cc(C)c1Cl [Example 112, 6-bromo-3-(3-(4-chloro-3,5-dimethylphenoxy)propyl)-N-(methylsulfonyl)-1H-indole-2-carboxamide]"
9,101 to 299 nM,"Cc1cc(OCCCc2c(C(=O)NS(=O)(=O)c3ccccc3)[nH]c3c(-c4ccco4)cccc23)cc(C)c1Cl [Example 86, 3-(3-(4-chloro-3,5-dimethylphenoxy)propyl)-7-(furan-2-yl)-N-(phenylsulfonyl)-1H-indole-2-carboxamide]"
10,301 to 500 nM,"Cc1cc(OCCCc2c(C(=O)NS(=O)(=O)CCNC(=O)c3cccn3Cc3cccc(Cl)c3)[nH]c3cc(Cl)ccc23)cc(C)c1Cl [Example 243, 6-chloro-3-(3-(4-chloro-3,5-dimethylphenoxy)propyl)-N-((2-(1-(3-chlorobenzyl)-1H-pyrrole-2-carboxamido)ethyl)sulfonyl)-1H-indole-2-carboxamide]"
11,301 to 500 nM,"Cc1cc(OCCCc2c(C(=O)NS(C)(=O)=O)[nH]c3c(Br)cccc23)cc(C)c1Cl [Example 83, 7-bromo-3-(3-(4-chloro-3,5-dimethylphenoxy)propyl)-N-(methylsulfonyl)-1H-indole-2-carboxamide]"
12,101 to 299 nM,"Cc1cc(OCCCc2c(C(=O)NS(=O)(=O)CCNC(=O)C3CCCCC3)[nH]c3ccccc23)cc(C)c1Cl [Example 150, 3-(3-(4-chloro-3,5-dimethylphenoxy)propyl)-N-((2-(cyclohexanecarboxamido)ethyl)sulfonyl)-1H-indole-2-carboxamide]"
13,101 to 299 nM,"Cc1cc(OCCCc2c(C(=O)NS(=O)(=O)CCNC(=O)c3cccn3Cc3cccc(F)c3)[nH]c3cc(Cl)ccc23)cc(C)c1Cl [Example 246, 6-chloro-3-(3-(4-chloro-3,5-dimethylphenoxy)propyl)-N-((2-(1-(3-fluorobenzyl)-1H-pyrrole-2-carboxamido)ethyl)sulfonyl)-1H-indole-2-carboxamide]"
14,301 to 500 nM,"Cc1cc(OCCCc2c(C(=O)NS(=O)(=O)CCNC(=O)NC3CCCCC3)[nH]c3ccccc23)cc(C)c1Cl [Example 199, 3-(3-(4-chloro-3,5-dimethylphenoxy)propyl)-N-((2-(3-cyclohexylureido)ethyl)sulfonyl)-1H-indole-2-carboxamide]"
15,301 to 500 nM,"Cc1cc(OCCCc2c(C(=O)NS(C)(=O)=O)n(Cc3cccnc3)c3cc(Cl)ccc23)cc(C)c1Cl [Example 271, 6-chloro-3-(3-(4-chloro-3,5-dimethylphenoxy)propyl)-N-(methylsulfonyl)-1-(pyridin-3-ylmethyl)-1H-indole-2-carboxamide]"
16,101 to 299 nM,"Cc1cc(OCCCc2c(C(=O)NS(=O)(=O)c3ccc(C(=O)N4CCOCC4)n3C)[nH]c3cc(Cl)ccc23)cc(C)c1Cl [Example 267, 6-chloro-3-(3-(4-chloro-3,5-dimethylphenoxy)propyl)-N-((1-methyl-5-(morpholine-4-carbonyl)-1H-pyrrol-2-yl)sulfonyl)-1H-indole-2-carboxamide]"
17,101 to 299 nM,"Cc1cc(OCCCc2c(C(=O)NS(=O)(=O)CCNC(=O)Cc3cn(C)c4ccccc34)[nH]c3ccccc23)cc(C)c1Cl [Example 175, 3-(3-(4-chloro-3,5-dimethylphenoxy)propyl)-N-((2-(2-(1-methyl-1H-indol-3-yl)acetamido)ethyl)sulfonyl)-1H-indole-2-carboxamide]"
18,101 to 299 nM,"Cc1cc(OCCCc2c(C(=O)NS(=O)(=O)CCNC(=O)C34CC5CC(CC(C5)C3)C4)[nH]c3ccccc23)cc(C)c1Cl [Example 180, N-((2-((3r,5r,7r)-adamantane-1-carboxamido)ethyl)sulfonyl)-3-(3-(4-chloro-3,5-dimethylphenoxy)propyl)-1H-indole-2-carboxamide]"

# — US10844032B2, “Substituted benzofuran, benzothiophene and indole Mcl-1 inhibitors” (Vanderbilt University, priority 2012, dated 2020)
